Among the test systems are 786-0 renal; DU-145 prostate; MALME-3M melanoma; NCI-H23 lung; OVCAR-4 ovarian; SF-268 CNS; SNB-19 CNS; T-47D breast; TK-10 renal; UACC-62 melanoma.
What all share (assay): NCI tumour cell line growth inhibition, 48 h

The results in this text go back to PubChem BioAssay (NCI).

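Grown in 96-well plates, cells were treated for 48 hours with each compound at five concentrations. Insufficient inhibition: endpoint recorded as highest concentration tested. Here, GI50 denotes the concentration required for 50% inhibition of growth. At the TGI there is no net growth.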

For the compound `Fc1cccc(Cl)c1Cn1c(-c2c(F)cccc2Cl)nc2ccccc21`, the GI50 in the assay with 786-0 renal was 21 µM; with DU-145 prostate, 24.6 µM; with MALME-3M melanoma, 8.29 µM; with NCI-H23 lung, 31.2 µM; with OVCAR-4 ovarian, 23.6 µM; in the assay with SF-268 CNS it was 15 µM. For the same compound, the GI50 with SNB-19 CNS was 18.4 µM; in the assay on T-47D breast, 13.9 µM; in the assay on TK-10 renal, 15.6 µM; in the assay on UACC-62 melanoma it was 12.8 µM. Besides, the TGI with 786-0 renal was 42.6 µM; in the assay on DU-145 prostate, 56.1 µM; with MALME-3M melanoma it was 24.7 µM; with NCI-H23 lung it was greater than 100 µM; with OVCAR-4 ovarian, 58.3 µM; with SF-268 CNS, 32.6 µM. The TGI in the assay with SNB-19 CNS is 48.1 µM; in the assay on T-47D breast, 62.9 µM; in the assay on TK-10 renal, 39.8 µM; in the assay with UACC-62 melanoma, 29.8 µM.

In the case of `O=C(Cc1ccc(Nc2ccnc(C(F)(F)F)c2)cc1)Nc1cc(Cl)ccc1O`, the GI50 in the assay with 786-0 renal was 21.3 µM; in the assay with DU-145 prostate, 9.27 µM; in the assay with MALME-3M melanoma, 3.83 µM; in the assay on NCI-H23 lung it was 2.86 µM; in the assay with OVCAR-4 ovarian it was 9.48 µM; in the assay with SF-268 CNS, 8.39 µM. In addition, the GI50 with SNB-19 CNS was 5.31 µM; with T-47D breast, 2.77 µM; in the assay on TK-10 renal it was 17.7 µM; in the assay with UACC-62 melanoma it was 2.75 µM. Also, the TGI in the assay on 786-0 renal was 58.6 µM; with DU-145 prostate it was 38.1 µM; in the assay on MALME-3M melanoma, 32.7 µM; in the assay with NCI-H23 lung, 13.3 µM; in the assay with OVCAR-4 ovarian, 84.2 µM; in the assay with SF-268 CNS, 31.5 µM. Further, the TGI in the assay on SNB-19 CNS was 38 µM; in the assay with T-47D breast, 11.3 µM; with TK-10 renal, 56 µM; with UACC-62 melanoma it was 13.9 µM.

Take `NC(=O)c1sc(-n2cnc3ccc(C(F)(F)F)cc32)cc1OCc1ccccc1Br`: the GI50 with 786-0 renal was 5.31 µM; with DU-145 prostate, 0.942 µM; in the assay on MALME-3M melanoma it was 9.02 µM; with NCI-H23 lung, 1.23 µM; in the assay with OVCAR-4 ovarian, 3.21 µM; in the assay with SF-268 CNS, 1.32 µM. For the same compound, the GI50 is 2.79 µM with SNB-19 CNS, 2.59 µM in the assay with T-47D breast, 7.81 µM with TK-10 renal and 1.38 µM in the assay on UACC-62 melanoma. Besides, the TGI was greater than 25 µM in the assay on 786-0 renal; 3.89 µM with DU-145 prostate; greater than 25 µM with MALME-3M melanoma; greater than 25 µM in the assay on NCI-H23 lung; greater than 25 µM in the assay on OVCAR-4 ovarian; greater than 25 µM in the assay with SF-268 CNS. The TGI in the assay on SNB-19 CNS is greater than 25 µM; in the assay on T-47D breast, greater than 20.3 µM; with TK-10 renal, greater than 25 µM; with UACC-62 melanoma, 17.9 µM.

Consider `COc1cc(OC)c(F)c(COc2cnc(Nc3cnn(CCO)c3)nc2)c1F`, for which the GI50 with 786-0 renal is 1.75 µM; with DU-145 prostate, 2.15 µM; with MALME-3M melanoma, 0.923 µM; with NCI-H23 lung it was 1.86 µM; in the assay with OVCAR-4 ovarian it was 0.617 µM; in the assay on SF-268 CNS, 1.03 µM. Besides, the GI50 in the assay on SNB-19 CNS is 0.796 µM; with T-47D breast it was 1.68 µM; with TK-10 renal, 1.01 µM; in the assay on UACC-62 melanoma, 0.518 µM. Besides, the TGI with 786-0 renal is greater than 100 µM; in the assay on DU-145 prostate it was greater than 100 µM; in the assay with MALME-3M melanoma, 7.66 µM; with NCI-H23 lung, greater than 100 µM; in the assay on OVCAR-4 ovarian, greater than 100 µM; with SF-268 CNS, greater than 64.9 µM. Further, the TGI was greater than 100 µM with SNB-19 CNS, greater than 100 µM in the assay on T-47D breast, greater than 27.9 µM with TK-10 renal and greater than 62 µM in the assay with UACC-62 melanoma.

As for `Nc1nccc2c1ccn2-c1cccc(NC(=O)c2ccc(N3CCOCC3)c(C(F)(F)F)c2)c1`, the GI50 with 786-0 renal is 0.905 µM; in the assay with DU-145 prostate it was 1.22 µM; in the assay with MALME-3M melanoma, 0.634 µM; with NCI-H23 lung, 1.16 µM; in the assay on OVCAR-4 ovarian, 1.77 µM; with SF-268 CNS it was 1.21 µM. Also, the GI50 in the assay on SNB-19 CNS was 1.58 µM; in the assay with T-47D breast, 1.98 µM; in the assay on TK-10 renal, 1.56 µM; in the assay on UACC-62 melanoma it was 0.429 µM. For the same compound, the TGI in the assay on 786-0 renal was 2.58 µM; with DU-145 prostate it was 4.15 µM; in the assay with MALME-3M melanoma, 16.7 µM; with NCI-H23 lung it was 14.7 µM; with OVCAR-4 ovarian, greater than 36.1 µM; in the assay with SF-268 CNS, greater than 46.7 µM. For the same compound, the TGI is greater than 50 µM with SNB-19 CNS, 29.9 µM in the assay with T-47D breast, 17.3 µM in the assay on TK-10 renal and 6.12 µM in the assay on UACC-62 melanoma.

As to `Nc1nc(-c2ccc(Cl)cc2)cc(-c2ccc(Cl)cc2)c1-c1nc2ccccc2o1`, the GI50 was 17.9 µM in the assay with 786-0 renal; 17.2 µM with DU-145 prostate; 14.4 µM in the assay with MALME-3M melanoma; 17.8 µM in the assay on NCI-H23 lung; 18.5 µM in the assay with OVCAR-4 ovarian; 14.5 µM in the assay with SF-268 CNS. In addition, the GI50 is 19.6 µM in the assay on SNB-19 CNS, 13.4 µM in the assay on T-47D breast, 20 µM in the assay on TK-10 renal and 18.9 µM in the assay on UACC-62 melanoma. Moreover, the TGI with 786-0 renal came to 36.4 µM; with DU-145 prostate it was 36.6 µM; in the assay on MALME-3M melanoma, 29.9 µM; in the assay with NCI-H23 lung, 37.3 µM; in the assay with OVCAR-4 ovarian, 35.5 µM; with SF-268 CNS, 34.1 µM. Also, the TGI in the assay with SNB-19 CNS turned out to be 41.4 µM; in the assay with T-47D breast, 29.6 µM; in the assay with TK-10 renal it was 41.9 µM; in the assay on UACC-62 melanoma, 34.2 µM.

Take `COc1ccc(-c2nnc(SCC(=O)Nc3ccc(C(=O)/C=C/c4cc(OC)c(OC)c(OC)c4)cc3)n2-c2ccccc2)cc1OC`: the GI50 was 3.53 µM with 786-0 renal; 3.86 µM in the assay on DU-145 prostate; greater than 10 µM in the assay with MALME-3M melanoma; 8.27 µM with NCI-H23 lung; greater than 10 µM in the assay on OVCAR-4 ovarian; 3.46 µM in the assay with SF-268 CNS. Moreover, the GI50 in the assay with SNB-19 CNS was greater than 10 µM; with T-47D breast, 4.74 µM; in the assay with TK-10 renal it was greater than 10 µM; with UACC-62 melanoma it was 6.4 µM. Moreover, the TGI in the assay on 786-0 renal, in the assay with DU-145 prostate, with MALME-3M melanoma, in the assay on NCI-H23 lung, with OVCAR-4 ovarian and in the assay on SF-268 CNS was greater than 10 µM throughout. In addition, the TGI in the assay with SNB-19 CNS, in the assay with T-47D breast, in the assay on TK-10 renal and in the assay on UACC-62 melanoma was greater than 10 µM throughout.
